The record followed here is the NIST ThermoML archive (doi:10.1021/je5009334).

“And” between values parts separate entries of the source, which are not always exact repeats. Equal values may be shown once. Numbers after ± are expanded uncertainties.

A word on the speed of sound: it is the propagation velocity of pressure waves in the medium. Usually mass density stands for the mass of a sample divided by its volume.

For the first data set the following is noted: 298.15 K; 101 kPa; Liquid; Sing-around technique in a fixed-path interferometer.
Take `OCc1ccccc1` [benzenemethanol]: the speed of sound turned out to be 1525.2 ± 1.3 m/s.

With `CC(O)CCO` (centres undefined) [1,3-butanediol], the speed of sound turned out to be 1527.8 ± 2.1 m/s.

With `CCC(C)O` (centres undefined) [butan-2-ol], the speed of sound worked out at 1212.7 ± 1.2 m/s.

Consider `OCCc1ccccc1` [2-phenylethanol], for which the speed of sound came out at 1526.1 ± 1.3 m/s.

For `CCC(O)CO` (centres undefined) [1,2-butanediol], the speed of sound is 1452.6 ± 1.3 m/s.

Staying with this data set, now noted: 298.15 K; 101 kPa; Liquid; Vibrating tube method.
As for `OCc1ccccc1` [benzenemethanol], the mass density was 1041.22 ± 0.26 kg/m3.

For the compound `CC(O)CCO` (centres undefined) [1,3-butanediol], the mass density turned out to be 1001.82 ± 0.84 kg/m3.

Turning to `CCC(C)O` (centres undefined) [butan-2-ol], the mass density came to 803.103 ± 0.24 kg/m3.

With `OCCc1ccccc1` [2-phenylethanol], the mass density stood at 1016.14 ± 0.24 kg/m3.

Take `CCC(O)CO` (centres undefined) [1,2-butanediol]: the mass density is 998.509 ± 0.23 kg/m3 and 998.492 ± 0.23 kg/m3.

The data set is the same for the next values; noted with them: 303.15 K; 101 kPa; Liquid; Sing-around technique in a fixed-path interferometer.
`OCc1ccccc1` [benzenemethanol]: the speed of sound is reported as 1509.3 ± 1.3 m/s.

Turning to `CC(O)CCO` (centres undefined) [1,3-butanediol], the speed of sound is 1514.1 ± 2.1 m/s.

`CCC(C)O` (centres undefined) [butan-2-ol]: the speed of sound was found to be 1194.5 ± 1.2 m/s.

Turning to `OCCc1ccccc1` [2-phenylethanol], the speed of sound is given as 1510.5 ± 1.3 m/s.

As to `CCC(O)CO` (centres undefined) [1,2-butanediol], the speed of sound is 1438.2 ± 1.3 m/s and 1437.7 ± 1.3 m/s.

Staying with this data set, now noted: 303.15 K; 101 kPa; Liquid; Vibrating tube method.
For the compound `OCc1ccccc1` [benzenemethanol], the mass density is 1037.35 ± 0.26 kg/m3.

For the compound `CC(O)CCO` (centres undefined) [1,3-butanediol], the mass density amounted to 998.418 ± 0.84 kg/m3.

With `CCC(C)O` (centres undefined) [butan-2-ol], the mass density is 798.891 ± 0.24 kg/m3.

Consider `OCCc1ccccc1` [2-phenylethanol], for which the mass density stood at 1012.39 ± 0.24 kg/m3.

On to `CCC(O)CO` (centres undefined) [1,2-butanediol], for which the mass density is 994.744 ± 0.23 kg/m3 and 994.719 ± 0.23 kg/m3 and 994.759 ± 0.23 kg/m3.

The data set is the same for the next values; noted with them: 308.15 K; 101 kPa; Liquid; Sing-around technique in a fixed-path interferometer.
`OCc1ccccc1` [benzenemethanol]: the speed of sound is on record as 1493.6 ± 1.3 m/s.

Consider `CC(O)CCO` (centres undefined) [1,3-butanediol], for which the speed of sound came out at 1500.2 ± 2.1 m/s.

Take `CCC(C)O` (centres undefined) [butan-2-ol]: the speed of sound was 1176.2 ± 1.2 m/s.

`OCCc1ccccc1` [2-phenylethanol]: the speed of sound was 1494.7 ± 1.3 m/s.

As for `CCC(O)CO` (centres undefined) [1,2-butanediol], the speed of sound came out at 1423.6 ± 1.3 m/s.

Still in this data set, the particulars now being: 308.15 K; 101 kPa; Liquid; Vibrating tube method.
On to `OCc1ccccc1` [benzenemethanol], for which the mass density is 1033.47 ± 0.26 kg/m3.

For the compound `CC(O)CCO` (centres undefined) [1,3-butanediol], the mass density is listed as 994.987 ± 0.83 kg/m3.

Take `CCC(C)O` (centres undefined) [butan-2-ol]: the mass density is 794.588 ± 0.24 kg/m3.

With `OCCc1ccccc1` [2-phenylethanol], the mass density stood at 1008.61 ± 0.24 kg/m3.

In the case of `CCC(O)CO` (centres undefined) [1,2-butanediol], the mass density was 990.956 ± 0.23 kg/m3 and 990.971 ± 0.23 kg/m3.

The same data set, now with this note: 313.15 K; 101 kPa; Liquid; Sing-around technique in a fixed-path interferometer.
Take `OCc1ccccc1` [benzenemethanol]: the speed of sound was found to be 1478 ± 1.3 m/s.

On to `CC(O)CCO` (centres undefined) [1,3-butanediol], for which the speed of sound worked out at 1486.3 ± 2.1 m/s.

For the compound `CCC(C)O` (centres undefined) [butan-2-ol], the speed of sound was 1157.9 ± 1.2 m/s.

Turning to `OCCc1ccccc1` [2-phenylethanol], the speed of sound was 1479.2 ± 1.3 m/s.

As for `CCC(O)CO` (centres undefined) [1,2-butanediol], the speed of sound is 1409.2 ± 1.3 m/s and 1408.5 ± 1.3 m/s and 1409.1 ± 1.3 m/s.

The same data set, now with this note: 313.15 K; 101 kPa; Liquid; Vibrating tube method.
For the compound `OCc1ccccc1` [benzenemethanol], the mass density was 1029.58 ± 0.26 kg/m3.

In the case of `CC(O)CCO` (centres undefined) [1,3-butanediol], the mass density was determined as 991.528 ± 0.83 kg/m3.

Turning to `CCC(C)O` (centres undefined) [butan-2-ol], the mass density was determined as 790.191 ± 0.24 kg/m3.

Regarding `OCCc1ccccc1` [2-phenylethanol], the mass density is reported as 1004.75 ± 0.23 kg/m3.

Consider `CCC(O)CO` (centres undefined) [1,2-butanediol], for which the mass density was 987.136 ± 0.23 kg/m3 and 987.113 ± 0.23 kg/m3 and 987.152 ± 0.23 kg/m3.

The same data set, now with this note: 318.15 K; 101 kPa; Liquid; Sing-around technique in a fixed-path interferometer.
Consider `OCc1ccccc1` [benzenemethanol], for which the speed of sound was 1462.6 ± 1.3 m/s.

`CC(O)CCO` (centres undefined) [1,3-butanediol]: the speed of sound is 1472.3 ± 2.1 m/s.

`CCC(C)O` (centres undefined) [butan-2-ol]: the speed of sound is listed as 1139.5 ± 1.2 m/s.

Consider `OCCc1ccccc1` [2-phenylethanol], for which the speed of sound is recorded as 1463.2 ± 1.3 m/s.

As for `CCC(O)CO` (centres undefined) [1,2-butanediol], the speed of sound was 1394.6 ± 1.2 m/s and 1394 ± 1.2 m/s and 1394.5 ± 1.2 m/s.

Staying with this data set, now noted: 318.15 K; 101 kPa; Liquid; Vibrating tube method.
Regarding `OCc1ccccc1` [benzenemethanol], the mass density was 1025.67 ± 0.25 kg/m3.

Regarding `CC(O)CCO` (centres undefined) [1,3-butanediol], the mass density is listed as 988.035 ± 0.82 kg/m3.

Turning to `CCC(C)O` (centres undefined) [butan-2-ol], the mass density is given as 785.692 ± 0.24 kg/m3.

With `OCCc1ccccc1` [2-phenylethanol], the mass density is reported as 1000.93 ± 0.23 kg/m3.

Consider `CCC(O)CO` (centres undefined) [1,2-butanediol], for which the mass density is 983.284 ± 0.23 kg/m3 and 983.257 ± 0.23 kg/m3 and 983.297 ± 0.23 kg/m3.

The same data set, now with this note: 323.15 K; 101 kPa; Liquid; Sing-around technique in a fixed-path interferometer.
Regarding `OCc1ccccc1` [benzenemethanol], the speed of sound worked out at 1447.3 ± 1.3 m/s.

With `CC(O)CCO` (centres undefined) [1,3-butanediol], the speed of sound was 1458.3 ± 2.1 m/s.

Take `CCC(C)O` (centres undefined) [butan-2-ol]: the speed of sound came to 1121 ± 1.2 m/s.

Take `OCCc1ccccc1` [2-phenylethanol]: the speed of sound was determined as 1447.7 ± 1.3 m/s.
